In ChEMBL document CHEMBL5233257, “Anticancer property of ginsenoside Rh2 from ginseng” (Eur J Med Chem, 2020):
Values after ≈ are worked out from the molar mass of the structure shown.

How the values were obtained:
HepG2 [1] = assay: Induction of apoptosis in human HepG2 cells incubated for 72 hrs; assay type: functional, cell-based; details: HepG2, 72 h
HepG2 [2] = assay: Induction of apoptosis in human HepG2 cells incubated for 24 hrs; assay type: functional, cell-based; details: HepG2, 24 h
HepG2 [3] = assay: Induction of apoptosis in human HepG2 cells incubated for 48 hrs by PI/Annexin V-FITC analysis; assay type: functional, cell-based; details: HepG2, 48 h
HepG2 [4] = assay: Induction of apoptosis in human HepG2 cells incubated for 72 hrs by PI/Annexin V-FITC analysis; assay type: functional, cell-based; details: HepG2, 72 h
HepG2 [5] = assay: Induction of apoptosis in human HepG2 beta-catenin cells incubated for 48 hrs by PI/Annexin V-FITC analysis; assay type: functional, cell-based; details: HepG2, 48 h
HepG2 [6] = assay: Induction of apoptosis in human HepG2 beta-catenin cells incubated for 72 hrs by PI/Annexin V-FITC analysis; assay type: functional, cell-based; details: HepG2, 72 h
HepG2 [7] = assay: Induction of cell death in human HepG2 cells assessed as lethal dose; assay type: functional; details: read-out: LD50 (the source's name)
HCT-116 [8] = assay: Induction of cell death in human HCT-116 cells incubated for 48 hrs by trypan blue staining based analysis; assay type: functional; details: HCT-116, 48 h
SW480 [9] = assay: Induction of cell death in human SW480 cells incubated for 48 hrs by trypan blue staining based analysis; assay type: functional; details: SW480, 48 h
HL-60 [10] = assay: Induction of apoptosis in human HL-60 cells assessed as reduction in cell viability incubated for 72 hrs by CCK-8 assay; assay type: functional, cell-based; details: HL-60, 72 h
Kasumi 1 = assay: Induction of apoptosis in human Kasumi 1 cells assessed as reduction in cell viability incubated for 72 hrs by CCK-8 assay; assay type: functional, cell-based; details: Kasumi 1, 72 h
HL-60 [11] = assay: Induction of apoptosis in human HL-60 cells; assay type: functional, cell-based
HL-60 [12] = assay: Cytotoxicity against human HL-60 cells measured after 24 hrs by MTT assay; assay type: functional, cell-based; details: HL-60, 24 h
U-937 = assay: Cytotoxicity against human U-937 cells measured after 24 hrs by MTT assay; assay type: functional, cell-based; details: U-937, 24 h
THP-1 = assay: Induction of apoptosis in human THP-1 cells; assay type: functional, cell-based
K562 = assay: Cytotoxicity against human K562 cells incubated for 48 hrs by CCK-8 assay; assay type: functional, cell-based; details: K562, 48 h
KG-1 [13] = assay: Cytotoxicity against human KG-1 alpha cells incubated for 48 hrs by CCK-8 assay; assay type: functional, cell-based; details: KG-1, 48 h
KG-1 [14] = assay: Cytotoxicity against human KG-1 alpha cells; assay type: functional, cell-based
REH = assay: Induction of apoptosis in human REH cells; assay type: functional, cell-based
Jurkat = assay: Induction of apoptosis in human Jurkat cells; assay type: functional, cell-based
[15] = Inhibition of proliferation in human Jurkat cells assessed as reduction in cell viability incubated for 48 hrs by CCK-8 assay; assay type: functional, cell-based
HeLa = assay: Induction of apoptosis in human HeLa cells incubated for 2 hrs by fluorescence microscopic analysis; assay type: functional, cell-based
SK-HEP1 = assay: Induction of apoptosis in human SK-HEP1 cells incubated for 2 hrs by fluorescence microscopic analysis; assay type: functional, cell-based; details: SK-HEP1, 2 h
SW480 [16] = assay: Induction of apoptosis in human SW480 cells incubated for 2 hrs by fluorescence microscopic analysis; assay type: functional, cell-based; details: SW480, 2 h
PC-3 [17] = assay: Antiproliferative activity against human PC-3 cells; assay type: functional, cell-based
HCT-116 [18] = assay: Cytotoxicity against human HCT-116 assessed as reduction in cell viability by MTT assay; assay type: functional, cell-based
LNCaP [19] = assay: Antiproliferative activity against human LNCaP cells incubated for 3 days; assay type: functional, cell-based; details: 72 h
PC-3 [20] = assay: Antiproliferative activity against human PC-3 cells incubated for 3 days; assay type: functional, cell-based; details: PC-3, 72 h
DU-145 = assay: Antiproliferative activity against human DU-145 cells incubated for 3 days; assay type: functional, cell-based; details: DU-145, 72 h
LNCaP [21] = assay: Antiproliferative activity against human LNCaP cells; assay type: functional, cell-based
MDA-MB-231 [22] = assay: Induction of apoptosis in human MDA-MB-231 cells assessed as inhibition of cell viability; assay type: functional, cell-based
MCF7 [23] = assay: Induction of apoptosis in human MCF7 cells assessed as inhibition of cell viability; assay type: functional, cell-based
MDA-MB-231 [24] = assay: Antiproliferative activity against human MDA-MB-231 cells; assay type: functional, cell-based
MCF7 [25] = assay: Antiproliferative activity against human MCF7 cells; assay type: functional, cell-based
A549 = assay: Antiproliferative activity against human A549 cells; assay type: functional, cell-based
[26] = Cytotoxicity against human HRA cells assessed as reduction in cell viability measured after 5 days by crystal violet staining based analysis; assay type: functional; details: 120 h
[27] = Cytotoxicity against human KK cells assessed as reduction in cell viability measured after 5 days by crystal violet staining based analysis; assay type: functional; details: 120 h
[28] = Cytotoxicity against human KF cells assessed as reduction in cell viability measured after 5 days by crystal violet staining based analysis; assay type: functional; details: 120 h
[29] = Cytotoxicity against human KFR cells assessed as reduction in cell viability measured after 5 days by crystal violet staining based analysis; assay type: functional; details: 120 h
B16-F10 = assay: Induction of cell death in mouse B16-F10 cells; assay type: functional, cell-based
MDA-MB-231 [30] = assay: Induction of cell death in human MDA-MB-231 cells; assay type: functional, cell-based
Huh-7 = assay: Induction of cell death in human Huh-7 cells; assay type: functional, cell-based
B16 = assay: Growth inhibition of mouse B16 cells; assay type: functional, cell-based
[31] = Induction of apoptosis in human HK-1 cells; assay type: functional, cell-based

Compound: CC(C)=CCC[C@](C)(O)[C@H]1CC[C@]2(C)[C@@H]1[C@H](O)C[C@@H]1[C@@]3(C)CC[C@H](O[C@@H]4O[C@H](CO)[C@@H](O)[C@H](O)[C@H]4O)C(C)(C)[C@@H]3CC[C@]12C [GINSENOSIDE RH2]
- IC50 (HepG2 [1]): 1.65 µg/mL (≈ 2.65 µM)
- IC50 (HepG2 [2]): 42.1 µM
- IC50 (HepG2 [3]): 100 µM
- IC50 (HepG2 [4]): 58.1 µM
- IC50 (HepG2 [5]): 129 µM
- IC50 (HepG2 [6]): 83.3 µM
- CC50 (HepG2 [7]): 10 µM
- IC50 (HCT-116 [8]): 35 µM
- IC50 (SW480 [9]): 35 µM
- IC50 (HL-60 [10]): 25.6 µM
- IC50 (Kasumi 1): 60.1 µM
- IC50 (HL-60 [11]): 25 µM
- IC50 (HL-60 [12]): 38 µM
- IC50 (U-937): 38 µM
- IC50 (THP-1): 15 µg/mL (≈ 24.1 µM)
- CC50 (THP-1; read-out: LC50 (the source's name)): 15 µg/mL (≈ 24.1 µM)
- IC50 (K562): 60 µM
- IC50 (KG-1 [13]): 60 µM
- IC50 (KG-1 [14]): 75 µM
- IC50 (REH): 40 µM
- IC50 (Jurkat): 35 µM
- IC50 [15]: 35 µM
- IC50 (HeLa): 2.52 µg/mL (≈ 4.05 µM)
- IC50 (SK-HEP1): 3.15 µg/mL (≈ 5.06 µM)
- IC50 (SW480 [16]): 4.06 µg/mL (≈ 6.52 µM)
- EC50 (PC-3 [17]): 5.5 µM
- IC50 (HCT-116 [18]): 19.6 µM
- IC50 (LNCaP [19]): 17 µM
- IC50 (PC-3 [20]): 35 µM
- IC50 (DU-145): 38 µM
- EC50 (LNCaP [21]): 4.4 µM
- IC50 (MDA-MB-231 [22]): 50 µM
- IC50 (MCF7 [23]): 50 µM
- EC50 (MDA-MB-231 [24]): 57.4 µM
- EC50 (MCF7 [25]): 52.5 µM
- IC50 (A549): 28.5 µg/mL (≈ 45.8 µM)
- IC50 [26]: 30 µM
- IC50 [27]: 45 µM
- IC50 [28]: 40 µM
- IC50 [29]: 41 µM
- IC50 (B16-F10): 35.6 µM
- IC50 (MDA-MB-231 [30]): 39.9 µM
- IC50 (Huh-7): 39 µM
- IC50 (B16): 4.1 µg/mL (≈ 6.58 µM)
- IC50 [31]: 12 µM
